# Measurements: paper PMC5217372, “Activation of SsoPK4, an Archaeal eIF2α Kinase Homolog, by Oxidized CoA” (Proteomes, 2015)
# T1: rSsoPK4(284–635) (Saccharolobus solfataricus, UniProt Q97U41)
# T1 construct: gene SSO3182; residues 284–635 (catalytic and part of central helical repeat domain), N-terminal S-tag, C-terminal 33-residue fusion domain with polyhistidine motif, pET-29b, expressed in E. coli
# T1 sequence (Q97U41 284-635): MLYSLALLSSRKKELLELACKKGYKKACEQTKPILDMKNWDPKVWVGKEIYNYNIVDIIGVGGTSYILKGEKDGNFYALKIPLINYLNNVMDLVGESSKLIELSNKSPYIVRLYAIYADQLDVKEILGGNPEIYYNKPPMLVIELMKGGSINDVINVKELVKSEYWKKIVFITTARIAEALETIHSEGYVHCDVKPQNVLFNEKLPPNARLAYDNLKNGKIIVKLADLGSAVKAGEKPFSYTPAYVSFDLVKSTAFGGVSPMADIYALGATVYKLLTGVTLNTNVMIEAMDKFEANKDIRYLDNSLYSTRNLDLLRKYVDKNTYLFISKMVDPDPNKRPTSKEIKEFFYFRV
# B1: rSsoPK4(284–635) (Saccharolobus solfataricus P2) (protein)
# chain: MLYSLALLSSRKKELLELACKKGYKKACEQTKPILDMKNWDPKVWVGKEIYNYNIVDIIGVGGTSYILKGEKDGNFYALKIPLINYLNNVMDLVGESSKLIELSNKSPYIVRLYAIYADQLDVKEILGGNPEIYYNKPPMLVIELMKGGSINDVINVKELVKSEYWKKIVFITTARIAEALETIHSEGYVHCDVKPQNVLFNEKLPPNARLAYDNLKNGKIIVKLADLGSAVKAGEKPFSYTPAYVSFDLVKSTAFGGVSPMADIYALGATVYKLLTGVTLNTNVMIEAMDKFEANKDIRYLDNSLYSTRNLDLLRKYVDKNTYLFISKMVDPDPNKRPTSKEIKEFFYFRV
# notes: residues 284–635 (catalytic and part of central helical repeat domain), N-terminal S-tag, C-terminal 33-residue fusion domain with polyhistidine motif, pET-29b, expressed in E. coli
# How the values were obtained:
# rSsoPK4(284–635) [1] = assay: Protein kinase activity assay (filter paper method, [γ-32P]ATP, 65 °C) of rSsoPK4(284–635); type: biochemical, Sulfolobus solfataricus; details: for Vmax in the presence of CoAS-SCoA: CoAS-SCoA 1 mM
# Experimental: (§1) Protein kinase activity was routinely assayed by the filter paper method of Corbin and Reimann as modified by Lower and Kennelly. The final volume of the assays was typically 50 μL. The quantity of rSsoPK4 assayed ranged from 0.1 to 5.0 µg. Both MgCl2 and MnCl2 were included at a final concentration of 5 mM each. The final concentration of [γ-^32P]ATP was 100 μM. The specific activity of the [γ-^32P]ATP generally ranged from 2 to 5 × 10^15 cpm/mol. Phosphoacceptor proteins were generally present at a concentration of 0.5–1.0 µg/µL. The assay mixture was typically incubated for a period of 30 min to one hour at 65 °C in 50 mM MOPS pH 7.0. On occasion, the proteins within the assay mixture were resolved by SDS-PAGE in order to identify the specific polypeptides that were phosphorylated. Radiolabeled species were visualized using an Instant Imager from Packard (Downers Grove, IL, USA).
# [2] = tested on: rSsoPK4(284–635) T592D/T606D/S611D; assay: Protein kinase activity assay of rSsoPK4(284–635) T592D/T606D/S611D; type: biochemical, Sulfolobus solfataricus; details: MBP as substrate (Figure 9)
# Experimental: Figure 9 CoAS-SCoA activates rSsoPK4(284–635), but not rSsoPK4(284–635) T592D/T606D/S611D, in a concentration-dependent manner. The activity of rSsoPK4(284–635) (OPEN […]) and rSsoPK4(284–635) T592D/T606D/S611D (OPEN CIRCLES) were assayed, in duplicate, in the presence of the indicated concentrations of CoAS-SCoA using MBP as substrate. Shown is a plot of the activity relative to that measured in the absence of CoAS-SCoA, which was normalized as 1.0, plus or minus mean average deviation.
# [3] = tested on: rSsoPK4(284–635)T606D/S611D; assay: Protein kinase activity assay of rSsoPK4(284–635)T606D/S611D; type: biochemical, Sulfolobus solfataricus
# rSsoPK4(284–635) [4] = target: T1, rSsoPK4(284–635); assay: Filter paper [γ-32P]ATP kinase assay with MBP as phosphoacceptor, ATP routinely 100 µM, 5 mM MgCl2 and 5 mM MnCl2, 50 mM MOPS pH 7.0, 65 °C, in the presence of nucleotide effectors.; type: biochemical
# Experimental: as §1
# [5] = substrate: Nc1ncnc2c1ncn2[C@@H]1O[C@H](COP(=O)(O)OP(=O)(O)OP(=O)(O)O)[C@@H](O)[C@H]1O; assay: Filter paper [32P]phosphate incorporation kinase assay with varied [γ-32P]ATP and mixed histones fixed at 70 µM as phosphoacceptor, 5 mM MgCl2 and 5 mM MnCl2, 50 mM MOPS pH 7.0, 65 °C; Lineweaver-Burk plot.; type: biochemical
# Experimental: Protein kinase activity was routinely assayed by the filter paper method of Corbin and Reimann [18] as modified by Lower and Kennelly [19]. The final volume of the assays was typically 50 μL. The quantity of rSsoPK4 assayed ranged from 0.1 to 5.0 µg. Both MgCl2 and MnCl2 were included at a final concentration of 5 mM each. The final concentration of [γ-^32P]ATP was 100 μM. The specific activity of the [γ-^32P]ATP generally ranged from 2 to 5 × 10^15 cpm/mol. Phosphoacceptor proteins were generally present at a concentration of 0.5–1.0 µg/µL. The assay mixture was typically incubated for a period of 30 min to one hour at 65 °C in 50 mM MOPS pH 7.0. On occasion, the proteins within the assay mixture were resolved by SDS-PAGE in order to identify the specific polypeptides that were phosphorylated. Radiolabeled species were visualized using an Instant Imager from Packard (Downers Grove, IL, USA).
molecule,measurement,setting,value
"CC(C)(COP(=O)(O)OP(=O)(O)OC[C@H]1O[C@@H](n2cnc3c(N)ncnc32)C(O)[C@H]1OP(=O)(O)O)[C@@H](O)C(=O)NCCC(=O)NCCSSCCNC(=O)CCNC(=O)[C@H](O)C(C)(C)COP(=O)(O)OP(=O)(O)OC[C@H]1O[C@@H](n2cnc3c(N)ncnc32)C(O)[C@H]1OP(=O)(O)O (some centres unmarked) [CoAS-SCoA, oxidized Coenzyme A]",Vmax in the presence of CoAS-SCoA,rSsoPK4(284–635) [1]; protein substrate MBP (3.7 without),4.8 nmol/min/mg
same,Vmax in the presence of CoAS-SCoA,rSsoPK4(284–635) [1]; protein substrate aIF2α (4.2 without),2.9 nmol/min/mg
same,effect on protein kinase activity toward MBP,"rSsoPK4(284–635) [1]; MBP substrate, compounds at 1 mM (Figure 8)",stimulate protein kinase activity toward MBP several-fold
same,shift (lowering) of Km for aIF2α by oxidized CoA,rSsoPK4(284–635) [1]; from ~48 µM in absence to ~6 µM in presence of oxidized CoA,~ 8 fold
same,sensitivity of activity to oxidized CoA,[2],no longer sensitive
same,sensitivity of activity to oxidized CoA,[3],no longer sensitive
"Nc1ncnc2c1ncn2[C@@H]1O[C@H](CO)[C@@H](OP(=O)(O)O)[C@H]1O [3ʹ-AMP, adenosine 3'-monophosphate]",IC50,rSsoPK4(284–635) [4],2.1 mM
B1,Km,[5],100 µM
